Series [1] in a line: Potentiation of amphotericin-induced cytotoxicity against human DU-145 cells over expressing CYP1B1 assessed as reversal of CYP1B1 mediated drug resistance at 5 uM after 48 hrs by MTT assay (Rvb = 43.25 +/- 1.7 nM).
Series [2] is described as follows: Potentiation of amphotericin-induced cytotoxicity against human DU-145 cells over expressing CYP1B1 assessed as reversal of CYP1B1 mediated drug resistance at 1 uM after 48 hrs by MTT assay (Rvb = 43.25 +/- 1.7 nM). On the technique in general: Formazan colour is commonly taken as a measure of viable cells.

Each structure is given as a SMILES string.

Usually IC50 stands for the concentration at which inhibition is half-maximal.

Take `COc1ccc(OC)c2c1c(OC)cc1c(=O)cc(-c3ccc(-c4cn(CCOc5cccc6c5C(=O)N(C5CCC(=O)NC5=O)C6=O)nn4)cc3)oc12` (centres undefined): the IC50 in series [1] amounted to 24 nM.
As to `COc1ccc(OC)c2c1c(OC)cc1c(=O)cc(-c3ccc(-c4cn(CCCCCOc5cccc6c5C(=O)N(C5CCC(=O)NC5=O)C6=O)nn4)cc3)oc12` (centres undefined), the IC50 in series [2] worked out at 28 nM.
For the molecule `COc1ccc(OC)c2c1c(OC)cc1c(=O)cc(-c3ccc(-c4cn(CCCCCCOc5cccc6c5C(=O)N(C5CCC(=O)NC5=O)C6=O)nn4)cc3)oc12` (centres undefined), the IC50 in series [1] was determined as 7 nM.
`COc1ccc(OC)c2c1c(OC)cc1c(=O)cc(-c3ccc(-c4cn(CCCCCCCCOc5cccc6c5C(=O)N(C5CCC(=O)NC5=O)C6=O)nn4)cc3)oc12` (centres undefined): the IC50 in series [1] was 37 nM.

For the origin of these results see BindingDB's records for doi:10.1016/j.ejmech.2019.112028 (Hunan Agricultural University, 2020).
